Experimental data: patent publication US11352604B2, “Method of making cardiomyocytes from human pluripotent cells” (Wisconsin Alumni Research Foundation, priority 2016, dated 2022)
Values belong to the molecule of their own block, whether it stands above or below them.

Columns and labels:
[1] = system: day 5 cardiac progenitor cells; assay: Propidium iodide cell cycle flow cytometry; assay type: cell-based, human; settings: DAPT with pI:C, day 5
Protocol: Propidium iodide staining was performed on ethanol-fixed cells of the 19-9-11 iPS cell line with a low flow rate and linear mode fluorescence according to a previously published protocol (Darzynkiewicz and Juan, 2001).

hPSC-CMs [2] = assay: Cardiomyocyte yield from dissociated and replated progenitors; assay type: cell-based, human; settings: DAPT
Protocol: For dissociation of day 5 cells (for destructive analyses or live cell replating experiments), progenitors were dissociated with Versene (Thermo Fisher Scientific) for 10 minutes at 37° C., pipetted up and down 40 times, and then neutralized 1:1 v/v versene solution with “K20” medium (DMEM/F12 with 1×NEAA, 1× Glutamine, 0.1 mM (3-mercaptoethanol, and 20% Knockout Serum Replacer by volume, all Thermo Fisher Scientific). For destructive analyses, pellets were made by centrifugation at 1.1×1000 g for 5 minutes, aspiration of medium supernatant, snap-freezing in liquid nitrogen, and kept at −80° C. for until pellet lysis for DNA, protein, or RNA isolation.
For replating of progenitors and microtissue formation, after neutralization and cell counting, 0.8 million day-5 progenitors per well were spun down at 100×g as above and resuspended and plated in 1 mL K20 with 10 μM Y-27632 ROCK-inhibitor (Tocris) into Synthemax® II-SC coated 12 well plates (Corning). Media was then changed daily in 2 mL of “K2” (same formulation as K20 above, but with just 2% Knockout Serum Replacer), and changed daily. Differentiating hPSC-CMs from replated progenitors in this protocol beat by day 8 to 12.

hPSC-CMs [3] = assay: Optical action potential measurement (RH237); assay type: cell-based, human; settings: DAPT day 3-16
Protocol: After hPSC-CM dissociation, day 30 to 60 lactate-purified hPSC-CMs from the 19-9-11 cell line were plated as 80 μL drops on areas of cover glass previously coated in drops of Synthemax® working solution of 80 μL (Corning) in the K20/2 dissociation and replating technique described above. After at least two days in K2 medium, the fast-equilibrating voltage-sensitive dye RH237 at 1 μM was added and live cells imaged in the cover glass in a Leica confocal microscope. Video files of individual cells were taken and filtered with the 50th FIR filter at a cutoff frequency of 128 Hz. The resulting action potentials were analyzed for rise time and voltage velocity in MATLAB. Individual cells were considered as replicates for statistical purposes and came from 4 cell preparations.

[4] = system: hPSC-CM sheets from replated progenitors; assay: Video edge detection / beating analysis of cardiomyocyte sheets; assay type: cell-based, human; settings: DAPT present day3-day20
Protocol: (§1) For quantification of spatial regularity and graphical presentation of time averaged beating in microtissue from the H9-cTnT-GFP (FIGS. 9A, C) or 19-9-11 (FIG. 9B) cell lines, .avi video files of low-powered (2.5× magnification) fields were recorded at a resolution of 1268×720 and a frame rate of 20/second. These videos were exported into a series of sequential .tiff files using Adobe Premiere, and then analyzed in MATLAB using previously described coding algorithms (Huebsch et al., 2015). Calculations of beat rate (before and after ivrabradine, […] for 2 hours, Sigma) were performed manually in the 19-9-11 cell line and multifocal patterns in untreated progenitor-derived sheets were represented as the average rate of beating for all foci present in a field.

[5] = system: hPSC-derived cardiac progenitors and hPSC-CMs; assay: RT-qPCR gene expression in progenitors or cardiomyocytes; assay type: cell-based, human
Protocol: Frozen cell pellets from progenitors or cardiomyocytes in the 19-9-11 iPS cell line were thawed and RNA isolated using RNeasy spin columns with on-column DNase treatment according to the manufacturer's instructions (Qiagen). 500 ng of isolated RNA was used as template for reverse transcription using Biorad iScript RT supermix according to the manufacturer's instructions. 2.5 ng of derived cDNA was then used as template in qPCR with Taqman® primers bearing FAM-MGB dyes for genes of interest in a 20 μL reaction with Taqman® universal PCR supermix and the manufacturer's recommended cycling conditions (Thermo Fisher Scientific).

hPSC-CMs [6] = assay: Cardiomyocyte yield and purity in GiWi differentiation; assay type: cell-based, human; settings: DAPT early (day 3-5 or 3-7) and extended (day 3-10 or 3-16)
Protocol: To differentiate cardiomyocytes from hPSCs, the small molecule temporal modulation of the Wnt pathway (GiWi) monolayer protocol was used essentially as previously described (Lian et al., 2012). Human embryonic or induced pluripotent stem cells were dissociated with Versene (Thermo Fisher Scientific) for 6 minutes at 37° C., pipetted up and down 40 times, counted with a hemocytometer, spun down at 100×g for 5 minutes, and resuspended and seeded for differentiation at 1.5 million cells per well in 6 well plates or 0.4 million per well in 12 well plates in mTeSR® on stem-cell verified Matrigel® (WiCell) containing 10 μM Y-27632 ROCK-inhibitor (Tocris). After four days in mTeSR® (WiCell), at which point cells grew to 100 percent confluence, medium was switched to RPMI supplemented with B27 supplement not containing insulin (Thermo Fisher Scientific) and containing 12 μM of the Wnt agonist CHIR99021 (Tocris) for exactly 24 hours. Media was then changed to RPMI supplemented with B27 not containing insulin for exactly 48 hours. Then medium was then switched at day 3 to RPMI supplemented with B27 not containing insulin and containing 5 μM IWP2 (Tocris). At day 5, media was switched to RPMI supplemented with B27 not containing insulin for two days. At day 7 and every three days afterward, medium was replaced with RPMI supplemented with B27 containing insulin (Thermo Fisher Scientific). […]

cTnT isoforms = assay: Top-down mass spectrometry of cTnT isoforms (adult to fetal AUC ratio); assay type: cell-based, human; settings: DAPT day 3-16
Protocol: Freshly isolated CMs from the H9-cTnT-GFP (FIG. 1) or 19-9-11 (FIG. 2) hPSC cell lines were washed with Ca^2+-free DPBS and centrifuged at 1,100 g for 5 minutes (min) and the wash solvent was removed. The cells were first homogenized in 50 μl HEPES solution (25 mM HEPES, pH 7.4, 2.5 mM EDTA, 100 mM NaF, 1 mM DTT, 10 mM L-methionine, 1 mM PMSF, 1 mM Na3VO4, protease inhibitor (Abcam) and phosphatase inhibitors). The homogenates were centrifuged at 17,000 g for 20 min and the HEPES extract containing predominately cytosolic proteins was collected. The remaining pellets were homogenized in 40 μl trifluoroacetic acid (TFA) solution (1% TFA, 5 mM tris(2-carboxyethyl)phosphine, 5 mM L-methionine) and centrifuged at 17,000 g for 20 min. The TFA extract containing predominantly the sarcomeric proteins was collected. Bradford protein assays were performed to determine the protein concentration. The sarcomeric protein-enriched extracts were diluted to 100 ng/μl for Liquid chromatography (LC)-MS analysis.
500 ng of each sarcomeric protein-enriched extract was injected to a home-packed reverse phase chromatography (RPC) column (PLRP-S, 10 μm particle size, 1000 A pore size, 500 μm inner diameter, 25 cm long), and the proteins were separated with a gradient of 5-95% mobile phase B (0.1% formic acid in 50:50 acetonitrile:ethanol) (mobile phase A: 0.1% formic acid in H2O) at a constant flowrate of 12 μl/min. The eluting proteins were analyzed by a high-resolution quadrupole-time of flight (q-TOF) mass spectrometer (Impact II, Bruker Daltonics) via electrospray ionization. The mass spectra were collected at a scan rate of 0.5 Hz for all samples being analyzed. Analyses of top-down mass spectra were performed using the vender-specific software DataAnalysis 3.2 (Bruker Daltonics).
Quantification of the sarcomeric protein isoforms was performed as previously described. […] The area under curve (AUC) of the EIC of a specific protein isoform represents the abundance of the selected protein isoform. […] Relative quantification of protein isoform expression was measured by the ratio of the AUCs.

NF-κB activation = settings: cited from earlier work
H9-TnT-GFP hPSC-CMs = assay: cTnT-GFP reporter imaging of hPSC-CMs after NFκB inhibition; assay type: cell-based, human; settings: QNZ day 3-5 concurrent with pI:C
Protocol: Antibodies: NFKappaB (Abcam) and phosphorylated IKappaB (Abcam). Antibodies were used at a dilution of 1:1000. NF-κB inhibitor: 40 nM QNZ (Selleckchem).

HCN4 channel = target: T1, HCN4 channel (Homo sapiens, UniProt Q9Y3Q4); assay: Spontaneous beat rate of cardiomyocyte sheets before and after ivrabradine; assay type: cell-based
T1 construct: endogenous in cells; host or cells: replated progenitor-derived cardiomyocyte sheets, 19-9-11 iPS cell line
T1 sequence (Q9Y3Q4 1-1203): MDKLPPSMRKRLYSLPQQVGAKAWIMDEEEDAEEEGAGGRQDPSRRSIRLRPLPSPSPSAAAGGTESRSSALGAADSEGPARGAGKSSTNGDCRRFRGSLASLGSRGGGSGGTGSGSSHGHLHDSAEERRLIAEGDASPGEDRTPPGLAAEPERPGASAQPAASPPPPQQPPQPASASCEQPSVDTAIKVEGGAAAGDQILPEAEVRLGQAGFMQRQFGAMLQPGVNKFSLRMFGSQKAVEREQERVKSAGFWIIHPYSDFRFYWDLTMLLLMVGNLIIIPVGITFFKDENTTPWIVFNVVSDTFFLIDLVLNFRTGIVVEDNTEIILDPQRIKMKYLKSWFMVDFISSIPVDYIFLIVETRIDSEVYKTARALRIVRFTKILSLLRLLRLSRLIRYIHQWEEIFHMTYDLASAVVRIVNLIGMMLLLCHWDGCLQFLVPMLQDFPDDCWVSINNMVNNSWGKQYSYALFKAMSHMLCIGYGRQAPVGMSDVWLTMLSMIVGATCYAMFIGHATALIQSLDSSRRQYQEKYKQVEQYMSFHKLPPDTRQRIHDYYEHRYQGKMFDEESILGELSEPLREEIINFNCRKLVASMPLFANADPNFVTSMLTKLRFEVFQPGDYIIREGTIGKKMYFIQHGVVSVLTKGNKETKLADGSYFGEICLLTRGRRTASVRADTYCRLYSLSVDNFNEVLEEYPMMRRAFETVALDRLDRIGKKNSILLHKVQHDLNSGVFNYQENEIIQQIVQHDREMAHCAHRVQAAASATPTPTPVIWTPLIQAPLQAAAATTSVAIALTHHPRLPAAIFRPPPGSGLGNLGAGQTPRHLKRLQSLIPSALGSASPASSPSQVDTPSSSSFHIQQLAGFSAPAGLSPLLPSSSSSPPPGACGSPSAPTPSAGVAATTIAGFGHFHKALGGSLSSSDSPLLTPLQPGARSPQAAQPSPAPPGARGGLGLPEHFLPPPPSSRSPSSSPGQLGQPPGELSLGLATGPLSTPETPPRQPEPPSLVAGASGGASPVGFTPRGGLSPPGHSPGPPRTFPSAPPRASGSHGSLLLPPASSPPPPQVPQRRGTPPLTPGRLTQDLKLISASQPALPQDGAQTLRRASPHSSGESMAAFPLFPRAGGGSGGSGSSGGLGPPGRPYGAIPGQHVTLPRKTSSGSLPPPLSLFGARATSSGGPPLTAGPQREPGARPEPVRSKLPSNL
Protocol: as §1

Structure (SMILES): C[C@H](NC(=O)Cc1cc(F)cc(F)c1)C(=O)N[C@H](C(=O)OC(C)(C)C)c1ccccc1 [DAPT]
effect on increased cell cycle activity of primed progenitors [1]: blocked the increased cell cycle activity
effect on increased yield from replated primed progenitors (hPSC-CMs [2]): blocked this increased yield
effect on increase in optical upstroke velocity (decreased rise time) from primed progenitors (hPSC-CMs [3]): blocked only with DAPT treatment from day 3-16
contraction pattern of hPSC-CM sheets from pI:C-primed progenitors [4]: multifocal and disorganized without forming waves of contraction
effect on pI:C-increased expression of cardiomyocyte maturation genes (αMHC, cTnI, cardiac actin, ATP5a, RYR2, SERCA) ([5]; DAPT day 3-5 or day 3-16): reversed the increased expression
effect on pI:C downregulation of cardiac fibroblast genes ([5]; Notch inhibition (DAPT) with pI:C): accentuated
effect on pI:C-increased hPSC-CM yield (hPSC-CMs [6]): blocked pI:C's effect on hPSC-CM yield
effect on protein isoform change toward adult cTnT 6 and 11 caused by pI:C (cTnT isoforms): abrogated

Structure (SMILES): Nc1ccc2ncnc(NCCc3ccc(Oc4ccccc4)cc3)c2c1 [QNZ]
inhibitory activity toward both NF-κB activation and TNF-α production (NF-κB activation): potent inhibitory activity
effect on formation of TnT-GFP positive cardiomyocyte collections after pIC treatment (H9-TnT-GFP hPSC-CMs): blocked the generation of large collections of TnT-GFP positive cardiomyocytes
effect on pI:C-increased maturation gene expression ([5]; day 20 pPSC-CM, QNZ with pI:C): reversed

effect on spontaneous contractions (HCN4 channel; cardiomyocyte sheets from primed progenitors, 5 μm for 2 hours): blocked the spontaneous contractions
effect on beat rate (HCN4 channel; cardiomyocyte sheets from untreated progenitors, 5 μM for 2 hours): little effect
Structure (SMILES): COc1cc2c(cc1OC)CC(=O)N(CCCN(C)C[C@H]1Cc3cc(OC)c(OC)cc31)CC2 [ivrabradine]
